Assay [1] relates to neurons. In words: Neuroprotection, protection factor, NMDA treatment. Format: cell-based. Particulars: Treatment NMDA 100 μM 10 minutes, then inhibitor 24 hours. The protocol:
(§1) For NMDAR activation, neurons at 8 days in vitro were incubated 100 μM NMDA (plus 10 μM glycine) for 10 minutes. Neurons were then washed and further incubated in culture medium with the PFKFB3 inhibitors for 24 hours. For b-amyloid treatment, neurons at 8 days in vitro were incubated with […] b-amyloid plus the PFKFB3 inhibitors for 24 hours. The Protection factor was estimated as [AMC(beta-A)−AMC(DMSO)]/[AMC(beta-A)−AMC(Test article)] or [AMC(beta-A)−AMC(DMSO)]/[AMC(NMDA)−AMC(Test article)], where:
(§2) AMC(DMSO)—% dead neuron in case of DMSO treatment
AMC(NMDA)—% dead neuron in case of NMDA treatment
(§3) AMC(Test article)—% dead neuron in case of PFKFB3 inhibitors treatment.

The test system of assay [2] is T-47D. In words: Combination with anticancer agents, T-47D. Format: cell-based. Particulars: Homo sapiens, T47D, anticancer agent alone. The protocol: (§4) All cells can be incubated in the plates overnight at 37° C., 5% 002 incubator with different medium.
For assay [3], the target named is Recombinant full length human PFKFB4 (Homo sapiens, UniProt Q16877). In words: PFKFB4 kinase activity assay (ADP production, ADP-Glo). A general note: In ADP-Glo the light output rises with the ADP produced.
Chain of Recombinant full length human PFKFB4 (Q16877 whole entry): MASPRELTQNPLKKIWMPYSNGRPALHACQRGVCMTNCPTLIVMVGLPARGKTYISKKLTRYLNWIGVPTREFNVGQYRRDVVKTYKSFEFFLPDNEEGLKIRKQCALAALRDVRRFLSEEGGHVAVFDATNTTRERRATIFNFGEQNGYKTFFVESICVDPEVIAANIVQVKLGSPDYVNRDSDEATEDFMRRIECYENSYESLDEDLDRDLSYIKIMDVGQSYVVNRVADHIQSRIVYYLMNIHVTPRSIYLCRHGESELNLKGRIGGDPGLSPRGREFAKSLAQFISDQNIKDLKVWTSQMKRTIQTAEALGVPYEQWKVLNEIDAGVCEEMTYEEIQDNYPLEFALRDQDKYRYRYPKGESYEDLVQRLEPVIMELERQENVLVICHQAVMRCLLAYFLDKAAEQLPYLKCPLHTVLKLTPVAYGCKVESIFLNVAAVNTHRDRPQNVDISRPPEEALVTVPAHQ
Description: Recombinant full length human PFKFB3 (or PFKFB4) protein purified from Sf9 baculoviral system was acquired from SignalChem (Cat. #P323-30G or P324-30G). ATP, Fructose-6-Phosphate and other chemicals were from Sigma-Aldrich. The kinase activity of the PFKFB3 (PFKFB4) protein was detected by measuring production of ADP from ATP in the presence of the Fructose-6-Phosphate substrate. The kinase reactions were assembled in 384 well plates in a total volume of 25 μL. Test compounds were serially diluted in DMSO. Reactions were set up by first mixing test compounds with enzyme and pre-incubating for 15 min. The ATP and Fructose-6-Phosphate substrates were next added to initiate the kinase reactions.
The compounds of invention listed below in this example were tested at various concentrations (which also added 1% DMSO from compounds, to the final solution) as described below. The kinase reactions were allowed to proceed for 1 h at room temperature. Aliquots of the reaction mixtures (5 μL) were transferred to fresh white 384 well plates and mixed with 5 μL of the ADP-Glo reagent (Promega), followed by incubation for 30 min. The luminescent Kinase Detection reagent was added (10 μL) and, following additional incubation for 15 min, the plates were read on luminescence plate reader (Analyst HT). Positive (100%-inhibition) and negative (0%-inhibition) control samples were assembled in each assay plate and were used to calculate percent inhibition values of test compounds. All experiments were performed in duplicate.
In assay [4] the target is Recombinant full length human PFKFB3 (Homo sapiens, UniProt Q16875). In words: PFKFB3 kinase activity assay (ADP production, ADP-Glo).
Chain of Recombinant full length human PFKFB3 (Q16875 whole entry): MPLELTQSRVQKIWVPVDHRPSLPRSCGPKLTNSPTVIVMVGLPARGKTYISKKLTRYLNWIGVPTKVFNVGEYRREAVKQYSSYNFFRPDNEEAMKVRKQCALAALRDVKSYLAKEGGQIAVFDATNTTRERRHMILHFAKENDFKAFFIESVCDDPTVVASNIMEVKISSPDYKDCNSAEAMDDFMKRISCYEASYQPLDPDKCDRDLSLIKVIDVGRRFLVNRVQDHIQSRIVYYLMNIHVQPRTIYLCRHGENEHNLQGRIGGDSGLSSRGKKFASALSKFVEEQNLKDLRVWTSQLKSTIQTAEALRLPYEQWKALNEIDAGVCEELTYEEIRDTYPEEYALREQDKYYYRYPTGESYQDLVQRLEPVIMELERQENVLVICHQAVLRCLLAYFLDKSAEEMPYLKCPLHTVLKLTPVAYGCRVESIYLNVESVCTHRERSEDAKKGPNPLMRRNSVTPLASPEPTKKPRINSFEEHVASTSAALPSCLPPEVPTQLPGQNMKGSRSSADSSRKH
Assay [5] has as its system MDA-MB-468. In words: Combination with anticancer agents, MDA-MB-468. Conditions: Homo sapiens, anticancer agent alone. Format: cell-based. Here is the method: as §4
The conditions of assay [6]: reported in the literature; cited from earlier work.
Assay [7] relates to established tumors. Particulars: reported in the literature; cited from earlier work.
Assay [8] addresses PFKFB3 (Homo sapiens, UniProt Q16875). Conditions: reported in the literature; cited from earlier work.
Assay [9] deals with HUVEC spheroids. In words: VEGF-A induced sprouting, spheroid-based cellular angiogenesis assay. Format: cell-based. Particulars: Homo sapiens. The protocol:
The effect of PFKFB3 inhibitors on VEGF-A induced sprouting of HUVECs in a spheroid-based cellular angiogenesis assay. Sunitinib was used as a control. The experiments were pursued in modification of the originally published protocol (Korff and Augustin: J Cell Sci 112: 3249-58, 1999). In brief, spheroids were prepared as described (Korff and Augustin: J Cell Biol 143:1341-52, 1998) by pipetting 500 HUVEC in a hanging drop on plastic dishes to allow overnight spheroid aggregation. 50 HUVEC spheroids were then seeded in 0.9 ml of a collagen gel and pipetted into individual wells of a 24 well plate to allow polymerization. The test compounds in combination with the growth factor VEGF-A at 25 ng/ml final assay concentration) were added after 30 min by pipetting 100 μl of a 10-fold concentrated working solution on top of the polymerized gel. Plates were incubated at 37° C. for 24 hours and fixed by adding 4% Roti-Histofix (Roth, Karlsruhe, Germany). Sprouting intensity of HUVEC spheroids treated with the growth factor and the inhibitors were quantitated by an image analysis system determining the cumulative sprout length per spheroid (CSL) using an inverted microscope and the digital imaging software NIS-Elements BR 3.0 (Nikon). The mean of the cumulative sprout length of 10 randomly selected spheroids was analyzed as an individual data point.

Assay [10] has as its system activated T-cells. Conditions: reported in the literature; cited from earlier work.
Assay [11] has as its system angiogenesis. Particulars: reported in the literature; cited from earlier work.
Assay [12] deals with neurons. In words: Neuroprotection, protection factor, b-amyloid treatment. Format: cell-based. Conditions: Treatment beta-amyloid, 24 hours. The protocol:
as §1, §2
AMC(beta—A)—% dead neuron in case of b—amyloid treatment
as §3

Structures can show the parent of a compound that is named as a salt.

Chain of PFKFB3 (Q16875 whole entry, species assumed): as the sequence (Q16875 whole entry) above

Consider `O=C1NCC(COC(=O)c2ccc(-c3ccc(F)c(F)c3)cc2N2Cc3ccc(-c4cn[nH]n4)cc3C2=O)O1` (stereo not shown), for which the Protection factors in [1] is 1.05.

Broadly, the IC50 is the concentration that inhibits the measured activity by half. For the compound `O=C(c1cc(Cc2n[nH]c(=O)c3ccccc23)ccc1F)N1CCN(C(=O)C2CC2)CC1` [Olaparib], in [2], the IC50 stood at 38600 nM.

`CCOC(=O)c1ccc(-c2ccc(F)c(F)c2)cc1N1Cc2ccc(-c3cnn[nH]3)cc2C1=O` [compound 166, ethyl 3′,4′-difluoro-3-[1-oxo-6-(1H-1,2,3-triazol-5-yl)-2,3-dihydro-1H-isoindol-2-yl][1,1′-biphenyl]-4-carboxylate]: the IC50 in assay [3] and in [4] was under 20000 nM each time.

On to `CC(CN(C)C)OC(=O)c1ccc(-c2ccc(F)c(F)c2)cc1N1Cc2ccc(-c3cn[nH]n3)cc2C1=O` (stereo not shown), for which the Protection factors in [1] is recorded as 2.56. For `O=C(O)c1ccc2c(c1)C(=O)N(c1cc(-c3ccc(F)c(F)c3)ccc1C(=O)O)C2=O` [Compound 138, 2-(4-Carboxy-3′,4′-difluoro[1,1′-biphenyl]-3-yl)-1,3-dioxo-2,3-dihydro-1H-isoindole-5-carboxylic acid], the IC50 in assay [3] and in [4] was under 500 nM throughout. On to `O=C(O)c1ccc2c(c1)C(=O)N(c1ccc(-c3ccccc3)cc1C(=O)O)C2=O` [Compound 134, 2-(3-Carboxybiphenyl-4-yl)-1,3-dioxo-2,3-dihydro-1H-isoindole-5-carboxylic acid], for which the IC50 in assay [3] and in assay [4] was under 500 nM in each case.

As to `COc1cccc2c1C(=O)c1c(O)c3c(c(O)c1C2=O)C[C@@](O)(C(=O)CO)C[C@@H]3O[C@H]1C[C@H](N)[C@H](O)[C@H](C)O1` [Doxorubicin, Doxorubicin Hydrochloride], in [5], the IC50 was found to be 70 nM. On to `O=C(/C=C/c1ccc2ccc(C(F)(F)F)cc2n1)c1ccncc1` [ACT-PFK-158, (E)-1-(pyridin-4-yl)-3-(7-(trifluoromethyl)quinolin-2-yl)prop-2-en-1-one], for which, in assay [6], the glucose uptake result was “reduce glucose uptake” and the “intracellular concentration of Fru-2,6-BP” value is recorded as “reduce intracellular concentration of Fru-2,6-BP”. The “growth of established tumors in vivo” value in assay [7] was “reduce growth of established tumors in vivo”. Further, the PFKFB3 inhibition result in assay [8] is given as “inhibit PFKFB3”. A word on the EC50: it is the midpoint of the concentration-response curve. Regarding `CCN(CC)CCNC(=O)c1c(C)[nH]c(/C=C2\C(=O)Nc3ccc(F)cc32)c1C` [Sunitinib, reference compound], the Emax in assay [9] (HUVEC, positive control, read-out: maximal effect (inhibition of vessel sprouting)) is 100%. In addition, the EC50 in assay [9] (3D HUVEC model, VEGF-A 25 ng/ml, 24 hours, read-out: EC50 of inhibition of vessel sprouting) came out at 100 nM. In the case of `O=C(O)c1ccc2c(c1)C(=O)N(c1cc(-c3ccc(Cl)c(F)c3)ccc1C(=O)O)C2=O` [Compound 143, 2-(4-Carboxy-4′-chloro-3′-fluoro[1,1′-biphenyl]-3-yl)-1,3-dioxo-2,3-dihydro-1H-isoindole-5-carboxylic acid], the IC50 in assay [3] and in assay [4] was under 500 nM each time. As to `CC(=O)O[C@H]1C(=O)[C@@]2(C)[C@H]([C@H](OC(=O)c3ccccc3)[C@]3(O)C[C@H](OC(=O)[C@H](O)[C@@H](NC(=O)c4ccccc4)c4ccccc4)C(C)=C1C3(C)C)[C@]1(OC(C)=O)CO[C@@H]1C[C@@H]2O` [Paclitaxel], in [5], the IC50 stood at 10 nM. `O=C(C=Cc1cccnc1)c1ccncc1` [Compound 3PO, 3-(3-pyridinyl)-1-(4-pyridinyl)-2-propen-1-one]: in assay [6], the glucose uptake result is recorded as “reduce glucose uptake” and the “intracellular concentration of Fru-2,6-BP” value is “reduce intracellular concentration of Fru-2,6-BP”. Also, in assay [10], the “proliferation of activated T-cells” value is “inhibit proliferation of activated T-cells”. Besides, in assay [7], the “growth of established tumors in vivo” value was “reduce growth of established tumors in vivo”. The angiogenesis entry in assay [11] is listed as “inhibit angiogenesis”. For the same compound, the PFKFB3 inhibition result in [8] is reported as “inhibit PFKFB3”. Consider `O=C(O)c1ccc(-c2ccccc2)cc1N1C(=O)c2cc(Cl)c(-c3cnn[nH]3)cc2C1=O` [Compound 144c, 3-[5-Chloro-1,3-dioxo-6-(1H-1,2,3-triazol-5-yl)-2,3-dihydro-1H-isoindol-2-yl][1,1′-biphenyl]-4-carboxylic Acid], for which the IC50 in [3] and in assay [4] was under 500 nM each time. With `O=C(O)c1ccc(-c2ccc(F)c(F)c2)cc1N1C(=O)c2ccc(-c3c[nH]nn3)cc2C1=O` [Compound 82, 3′,4′-Difluoro-3-[1,3-dioxo-5-(1H-[1,2,3]triazol-4-yl)-1,3-dihydroisoindol-2-yl]biphenyl-4-carboxylic Acid], the IC50 in assay [3] and in [4] was under 500 nM each time. On to `O=C(O)c1ccc(-c2ccc(F)c(F)c2)cc1N1C(=O)c2cc(Cl)c(-c3cnn[nH]3)cc2C1=O` [Compound 144b, 3-[5-Chloro-1,3-dioxo-6-(1H-1,2,3-triazol-5-yl)-2,3-dihydro-1H-isoindol-2-yl]-3′,4′-difluoro[1,1′-biphenyl]-4-carboxylic Acid], for which the IC50 in assay [3] and in assay [4] was under 500 nM in each case. For the compound `O=C(O)c1cc(C(=O)O)c(C(=O)Nc2cc(-c3ccc(Cl)cc3Cl)ccc2C(=O)O)cc1O` [4-({4-carboxy-2′,4′-dichloro-[1,1′-biphenyl]-3-yl}carbamoyl)-6-hydroxybenzene-1,3-dicarboxylic acid], the Protection factors in assay [12] was found to be 8.07. As for `O=C(O)c1cc2c(cc1O)C(=O)N(c1cc(-c3ccc(F)c(F)c3)ccc1C(=O)O)C2=O` [Compound 144a, 2-(4-Carboxy-3′,4′-difluoro[1,1′-biphenyl]-3-yl)-6-hydroxy-1,3-dioxo-2,3-dihydro-1H-isoindole-5-carboxylic acid], the half-inhibitory concentration (IC50) in [3] and in assay [4] was under 500 nM in each case. With `O=C(OCC(O)CO)c1ccc(-c2ccc(F)c(F)c2)cc1N1Cc2ccc(-c3cn[nH]n3)cc2C1=O` (stereo not shown), in assay [1], the Protection factors was 1.35. In the case of `CC1(C)CCN(c2ccc(C(=O)O)c(NC(=O)c3cc(O)c(C(=O)O)cc3C(=O)O)c2)CC1` [4-{[2-carboxy-5-(4,4-dimethylpiperidin-1-yl)phenyl]carbamoyl}-6-hydroxybenzene-1,3-dicarboxylic acid], the Protection factors in assay [12] stood at 4.33. `CN(C)CCOC(=O)c1ccc(-c2ccc(Cl)cc2Cl)cc1NC(=O)c1ccc(C(=O)N=S(C)(C)=O)cc1C(=O)O` came in with a Protection factors in [12] of 1.43.

The record behind these values is patent US20230047816A1 (priority 2018, published 2023).
